In patent US20050101674A1, “PPMP as a ceramide catabolism inhibitor for cancer treatment” (priority 2003, published 2005):
Read-outs that look alike come from different tables or passages of the source.

How the values were obtained:
[1] = test system: SK-N-RA neuroblastoma cells; experiment: DIMSCAN cytotoxicity assay in SK-N-RA cells; format: cell-based; settings: combined with 4-HPR, +96 h
Text: (§1) In the following examples, the DIMSCAN assay is a cell survival assay, not merely an apoptosis assay, and therefore reflects cancer cell killing due to both apoptosis and necrosis. DIMSCAN correlates directly with more traditional clonogenic assays. Moreover, DIMSCAN drug resistance profiles of cell lines correlate with prior patient therapy. DIMSCAN has successfully predicted clinical activity in high-risk neuroblastoma patients for the following new agents: 13-cis-retinoic acid, BSO+L-PAM, and fenretinide. Cytotoxicity assays are performed in 96 well microplates using a semi automated Digital Image Microscopy (DIMSCAN) system that has a dynamic range of greater than 4-5 logs of cell kill. Briefly, following incubation with study drugs, fluorescein diacetate [10 μg/ml (a vital stain)] is added to the microplate and incubated for twenty minutes. Eosin-Y (800 μg/ml) is then added to quench background fluorescence in the medium and non-viable cells. The plates are then read on an inverted microscope with the relative fluorescence of each well determined by the video imaging system software designed for the DIMSCAN system. […]
Survival fraction was measured using a digital imaging fluorescence-based microscopy assay (DIMSCAN) with approximately 5 log sensitivity. […]

[2] = test system: PC-3 prostate cancer cells; experiment: DIMSCAN cytotoxicity assay in PC-3 cells; format: cell-based; settings: PC-3, combined with 4-HPR, +96 h
Text: as §1, with “system. We have done comparison studies and have shown that the relative fluorescent values obtained by DIMSCAN correlate to cell density (standard counts by trypan blue exclusion) and clonogenicity assays.” for “system.”

[3] = test system: PC-3 prostate cancer cells; experiment: Ceramide by [3H]-palmitic acid labeling and thin-layer chromatography, PC-3; settings: PC-3, drug 10 μM, +24 h
Experimental: Lipids were assayed by labeling with [^3H]-palmitic acid and thin-layer chromatography at +24 h. […] Synergy assayed by Combination Index (C.I.): synergy, C.I.<1; additive, C.I.=1; antagonism, C.I.>1. Statistical analysis is by student's t-test.

[4] = test system: SK-N-RA neuroblastoma cells; experiment: Ceramide and glucosylceramide levels by [3H]-palmitic acid labeling and thin-layer chromatography, SK-N-RA; format: cell-based; settings: for 4-HPR-induced glycosylceramide increase: FIG. 9 right panel; for 4-HPR-induced ceramide level / 4-HPR-induced glucosylceramide level: with 4-HPR 10 μM
Experimental: Assays were performed at +24 h.
SK-N-RA neuroblastoma cells were exposed to drugs at 10 μM concentrations for the time indicated.

[5] = test system: cell lines of neuroblastoma, PNET/Ewing's sarcoma, breast and lung cancer; experiment: 4-HPR ceramide increase in tumor cell lines; format: cell-based
Text: (§2) 4-HPR has been reported to increase Reactive Oxygen Species (ROS) in certain, but not all, solid tumor cell lines and leukemia cell lines in vitro as a mechanism of cytotoxicity. […] We, therefore, have explored alternative mechanisms of 4-HPR cytotoxicity.

[6] = test system: two neuroblastoma cell lines; experiment: Reactive oxygen species in neuroblastoma cell lines; format: cell-based
Text: as §2

[7] = Plasma levels after intravenous formulations of 4-HPR; format: in vivo
[8] = pediatrics, oral, cited from earlier work
[9] = test system: normal fibroblasts, peripheral blood mononuclear cells, EBV-immortalized lymphoid cell line; experiment: 4-HPR ceramide in normal and non-transformed cells; format: cell-based; settings: in vitro
Text: Accordingly, the ability of 4-HPR to increase ceramide by de novo synthesis is most likely a malignancy (transformed phenotype)-specific event. Further, high-dose 4-HPR will have a favorable therapeutic index in vivo. Moreover, second agents that inhibit ceramide catabolism will also have a favorable therapeutic index in combination with 4-HPR, as normal tissues will not increase ceramide in response to 4-HPR.

[10] = test system: variety of cancer cell lines; settings: cancer cell lines in vitro; cited from earlier work
[11] = Continuous venous infusion (c.i.v.) of 4-HPR in rats; format: in vivo
Text: Utilizing intravenous formulations, we have directly tested continuous venous infusion (c.i.v.) in rats. […] Accordingly, the anti-tumor activity of 4-HPR will be increased by other agents which modulate the metabolism of ceramide, such as inhibitors of glucosylceramide synthase and 1-O-acylceramide synthase.

ceramide synthase = experiment: Direct assay of enzymatic activity, ceramide synthase; format: biochemical
Text: (§3) We have determined in solid tumor and ALL cell lines in vitro, that the ceramide increased by 4-HPR treatment was derived from de novo synthesis.

[12] = low-dose 4-HPR; cited from earlier work
[13] = test system: six pediatric ALL cell lines; experiment: 4-HPR and D,L-threo-PPMP cytotoxicity in ALL cell line panel; format: cell-based
[14] = test system: normal fibroblasts, bone marrow myeloid progenitors, peripheral blood mononuclear cells, EBV-immortalized lymphoblastoid cell line; experiment: 4-HPR cytotoxicity in normal and non-malignant cells; format: cell-based; settings: doses cytotoxic to cancer cell lines in vitro
Text: Having established the potential of high-dose 4-HPR to treat resistant neuroblastoma, in order to investigate the therapeutic index of 4-HPR, we examined the cytotoxicity of 4-HPR in normal and non-malignant cell lines in vitro. […] Accordingly, 4-HPR cytotoxicity is most likely a malignancy-specific event, and high-dose 4-HPR may have an acceptable therapeutic index in vivo.

[15] = adults, high-dose oral; cited from earlier work
[16] = test system: serine palmitoyltransferase; experiment: Direct assay of enzymatic activity, serine palmitoyltransferase; format: biochemical
Text: as §3

ALL cell lines = experiment: Glucosylceramide and ceramide in ALL cell lines; settings: ALL cell lines examined
NALM-6 = experiment: DIMSCAN cytotoxicity, ALL cell line NALM-6; format: cell-based; settings: NALM-6, 4-HPR+PPMP 1:1 molar ratio, +96 hours
Text: as §1, with “system. We have done comparison studies and have shown that the relative fluorescent values obtained by DIMSCAN correlate to cell density (standard counts by trypan blue exclusion) and clonogenicity assays.” for “system.”

MOLT-4 = experiment: DIMSCAN cytotoxicity, ALL cell line MOLT-4; format: cell-based; settings: MOLT-4, 4-HPR+PPMP 1:1 molar ratio, +96 hours
Text: as §1, with “system. We have done comparison studies and have shown that the relative fluorescent values obtained by DIMSCAN correlate to cell density (standard counts by trypan blue exclusion) and clonogenicity assays.” for “system.”

NALL-1 = experiment: DIMSCAN cytotoxicity, ALL cell line NALL-1; format: cell-based; settings: 4-HPR+PPMP 1:1, +96 hours
Text: (§4) In the following examples, the DIMSCAN assay is a cell survival assay, not merely an apoptosis assay, and therefore reflects cancer cell killing due to both apoptosis and necrosis. DIMSCAN correlates directly with more traditional clonogenic assays. Moreover, DIMSCAN drug resistance profiles of cell lines correlate with prior patient therapy. DIMSCAN has successfully predicted clinical activity in high-risk neuroblastoma patients for the following new agents: 13-cis-retinoic acid, BSO+L-PAM, and fenretinide. Cytotoxicity assays are performed in 96 well microplates using a semi automated Digital Image Microscopy (DIMSCAN) system that has a dynamic range of greater than 4-5 logs of cell kill. Briefly, following incubation with study drugs, fluorescein diacetate [10 μg/ml (a vital stain)] is added to the microplate and incubated for twenty minutes. Eosin-Y (800 μg/ml) is then added to quench background fluorescence in the medium and non-viable cells. The plates are then read on an inverted microscope with the relative fluorescence of each well determined by the video imaging system software designed for the DIMSCAN system. We have done comparison studies and have shown that the relative fluorescent values obtained by DIMSCAN correlate to cell density (standard counts by trypan blue exclusion) and clonogenicity assays. The present invention is explained in greater detail in the following non-limiting examples.
(§5) Assayed by DIMSCAN at +96 hours. •=4-HPR; ▪=PPMP; □=4-HPR+PPMP; (1:1 molar ratio).

intact cells = settings: in intact cells; cited from earlier work
CEM = experiment: DIMSCAN cytotoxicity, ALL cell line CEM; format: cell-based; settings: 4-HPR+PPMP 1:1 molar ratio, +96 hours
Text: as §4, with “The present invention is explained in greater detail in the following non-limiting examples.” left out

MOLT-3 = experiment: DIMSCAN cytotoxicity, ALL cell line MOLT-3; format: cell-based; settings: MOLT-3, 4-HPR+PPMP 1:1 molar ratio, +96 hours
Text: as §4, with “The present invention is explained in greater detail in the following non-limiting examples.” left out

SMS-SB = experiment: DIMSCAN cytotoxicity, ALL cell line SMS-SB; format: cell-based; settings: 4-HPR+PPMP 1:1, +96 hours
Text: as §4, §5

[17] = test system: MCF-7/tet breast cancer cells
Experimental: MCF-7/tet breast cancer cells exposed to ethanol (controls), 4-HPR(H) or 4-HPR+safingol (3:1 ratio)(H+S), without or with preincubation with L-cycloserine (2 mM)(+C) and assayed by DIMSCAN assay at +96 hrs. 4-HPR (•); 4-HPR/L-cycloserine (O); 4-HPR/safingol (3:1)(▾); 4-HPR/safingol/L-cycloserine (∇); L-cycloserine (2 mM) (□).

[18] = test system: solid tumor and ALL cell lines; experiment: Effect of de novo ceramide synthesis inhibitors on 4-HPR-induced ceramide; format: cell-based; settings: in vitro
Text: as §3

neuroblastoma cell lines = experiment: Toxicity of de novo ceramide synthesis inhibitors to neuroblastoma cell lines; format: cell-based
[19] = test system: Ehrlich ascites tumor cells xenografts; settings: in vivo; cited from earlier work
[20] = rodents, x 10 days; cited from earlier work
[21] = in vivo; cited from earlier work
[22] = test system: human neuroblastoma murine xenograft; experiment: Human neuroblastoma murine xenograft models; format: in vivo; settings: combined with 4-HPR

CCCCCCCCCCCCCCCC(=O)NC(CN1CCOCC1)C(O)c1ccccc1 (single isomer, unassigned) [D-threo-PPMP, D-threo-stereoisomer of 1-phenyl-2-palmitoylamino-3-morpholino-1-propanol]
synergy of 4-HPR cytotoxicity (in words) [1]: synergizes 4-HPR cytotoxicity more potently than does L-threo-PPMP | Combination Index (C.I.) of cytotoxic synergy with 4-HPR [2]: < 1 | ceramide in 4-HPR-treated cells [3]: increased ceramide | 4-HPR-induced ceramide ([4]; drugs at 10 μM, FIG. 9 left panel, preliminary): increased 4-HPR-induced ceramide more than did L-threo-PPMP | 4-HPR-induced glycosylceramide increase ([4]; drugs at 10 μM, preliminary): prevented

CC1=C(/C=C/C(C)=C/C=C/C(C)=C/C(=O)Nc2ccc(O)cc2)C(C)(C)CCC1 [4-HPR, N-(4-hydroxyphenyl)retinamide]
increase of ceramide ([5]; dose- and time-dependent, in vitro, 'up to'): up to 13 fold | time at which ceramide increase began ([5]; post exposure): less than 2 hrs | Reactive Oxygen Species (ROS) [6]: increased ROS | systemic toxicity ([7]; dog, in vivo, iv): minimal systemic toxicity | 4-HPR plasma levels ([7]; intravenous formulations, rodent and canine models): 50 to 150 µM | maximally tolerated dose (MTD) ([8]; 7 days every 3 weeks): 2475 mg/m^2/day | systemic toxicity ([8]; at MTD): minimal systemic toxicity | ceramide in normal and non-transformed cells [9]: only minimally increased ceramide | 4-HPR concentrations that are cytotoxic [10]: 1 to 12 µM | levels of 4-HPR in plasma and tissues [11]: high, sustained levels | ceramide synthase activity (ceramide synthase): stimulated the activities | reduction in premalignant oral lesions (leukoplakia) [12]: 30% | 4-HPR cytotoxicity ([13]; all six tested ALL cell lines in vitro): multi-log cytotoxicity | toxicity to normal and non-malignant cells [14]: minimally toxic | ceramide level ([4]; 4-HPR 10 μM alone, +24 h): modestly increased | recommended 'practical' dose for Phase II studies [15]: 1800 mg/m^2/day | serine palmitoyltransferase activity [16]: stimulated the activities

CCCCCCCCCCCCCCCC(=O)NC(CN1CCOCC1)C(O)c1ccccc1 [D,L-erythro-PPMP]
4-HPR-induced ceramide level ([4]; +24 h): further increased | 4-HPR-induced glucosylceramide level ([4]; +24 h): did not affect

CCCCCCCCCCCCCCCC(=O)NC(CN1CCOCC1)C(O)c1ccccc1 [D,L-threo-PPMP, D,L-threo-(1-phenyl-2-hexadecanoylamino-3-morpholino-1-propanol)]
ceramide (ALL cell lines): increased ceramide | glucosylceramide formation (ALL cell lines): decreased glucosylceramide formation | synergy of 4-HPR cytotoxicity (in words) [1]: more potently | Combination Index (C.I.) (NALM-6): < 1 | Combination Index (C.I.) (MOLT-4): < 1 | Combination Index (C.I.) (NALL-1; NALL-1, 3 μM): > 1 | Combination Index (C.I.) (NALL-1; NALL-1, 6 μM): 1 | Combination Index (C.I.) (NALL-1; NALL-1, 9 μM): < 1 | activity relative to PDMP (intact cells): 10-20 times | Combination Index (C.I.) (CEM): 1 | Combination Index (C.I.) (MOLT-3): < 1 | Combination Index (C.I.) (SMS-SB; 3 μM): > 1 | Combination Index (C.I.) (SMS-SB; 6 μM): > 1 | Combination Index (C.I.) (SMS-SB; 9 μM): 1 | number of ALL cell lines in which 4-HPR cytotoxicity was synergized ([13]; pediatric ALL cell lines): four of six | 4-HPR-induced ceramide level ([4]; +24 h): even more strongly increased | 4-HPR-induced glucosylceramide level ([4]; +24 h): prevented glucosylceramide formation

N[C@H]1CONC1=O [L-cycloserine]
effect on 4-HPR-induced ceramide [17]: prevented ceramide increase | effect on ceramide increase caused by 4-HPR treatment [18]: prevented the increase of ceramide | toxicity as single agents (neuroblastoma cell lines): proved toxic of themselves

CCCCCCCCCCCCCCCC(=O)N[C@@H](CN1CCOCC1)[C@@H](O)c1ccccc1 [L-threo-PPMP]
4-HPR-induced glycosylceramide increase ([4]; drugs at 10 μM, preliminary): did not

CCCCCCCCCC(=O)NC(CN1CCOCC1)C(O)c1ccccc1 (stereo not drawn) [PDMP, 1-phenyl-2-[decanoylamino]-3; morpholino-1-propanol]
anti-tumor effect [19]: cures | well tolerated dose [20]: ≤ 120 mg/kg/day | half-life [21]: approximately 1 hour

CCCCCCCCCCCCCCC[C@H](O)[C@@H](N)CO [safingol, L-threo-dihydrosphingosine]
effect on anti-tumor activity of 4-HPR [22]: significantly increase the anti-tumor activity of 4-HPR

fumonisin B
effect on ceramide increase caused by 4-HPR treatment [18]: prevented the increase of ceramide | toxicity as single agents (neuroblastoma cell lines): proved toxic of themselves
